From patent US20240317749A1, “THERAPEUTIC COMPOUNDS” (priority 2021, published 2024)
≈ marks a conversion by molar mass, not a printed value.

Key:
[1] = system: N. gonorrhoeae ATCC 49226; test: MIC assay for N. gonorrhoeae, broth microdilution in Todd-Hewitt (TH) broth; assay type: cell-based; settings: Neisseria gonorrhoeae, ATCC49226; Antibacterial Activity against N. gonorrhoeae ATCC 49226 in TH
P. aeruginosa ATCC 27853 = test: MIC assay, CLSI broth microdilution in CAMH broth; assay type: cell-based, Pseudomonas aeruginosa; settings: P. aeruginosa ATCC 278538
Protocol: (§1) MIC assays for various Gram-negative and Gram-positive strains were conducted in accordance with the CLSI guidelines for broth microdilution. A 96-well plate containing CAMH broth with 2-fold serial dilution of compounds was inoculated with log-phase bacterial at 5×10^5 CFU/mL. The final volume in each well was 100 μL. Each compound was tested in duplicate. The microtiter plates were incubated in an aerobic environment for 18 hours at 37° C. Then the bacterial growth was tested by reading the plate with a SpectraMax iD5 plate reader (Molecular Devices, Inc.) at 600 nm. The MIC was defined as the lowest compound concentration that inhibited bacteria growth.
(§2) The following Gram-negative and Gram-positive strains were used in the aerobic MIC procedure: • P. aeruginosa ATCC 27853 • A. baumannii ATCC 19606 • E. coli ATCC 25922 • E. coli W4573 • E. coli N43 • K. pneumoniae ATCC 10031 • K. pneumoniae ATCC 13883 • S. sonnei ATCC 29930 • P. mirabilis ATCC 29906 • Methicillin-susceptible S. aureus (MSSA) ATCC 19636 • Methicillin-resistant S. aureus (MRSA) ATCC 33951

E. coli ATCC 25922 = test: MIC assay, CLSI broth microdilution in CAMH broth; assay type: cell-based, Escherichia coli
Protocol: as §1, §2

E. coli N43 = test: MIC assay, CLSI broth microdilution in CAMH broth; assay type: cell-based, Escherichia coli
Protocol: as §1, §2

E. coli W4573 = test: MIC assay, CLSI broth microdilution in CAMH broth; assay type: cell-based, Escherichia coli
Protocol: as §1, §2

K. pneumoniae ATCC 10031 = test: MIC assay, CLSI broth microdilution in CAMH broth; assay type: cell-based, Klebsiella pneumoniae; settings: K. pneumonias ATCC 10031
Protocol: as §1, §2

K. pneumoniae ATCC 13883 = test: MIC assay, CLSI broth microdilution in CAMH broth; assay type: cell-based, Klebsiella pneumoniae; settings: K. pneumonias ATCC 13883
Protocol: as §1, §2

P. mirabilis ATCC 29906 = test: MIC assay, CLSI broth microdilution in CAMH broth; assay type: cell-based, Proteus mirabilis
[2] = system: Methicillin-susceptible S. aureus (MSSA) ATCC 19636; test: MIC assay, CLSI broth microdilution in CAMH broth; assay type: cell-based, Staphylococcus aureus
[3] = system: Methicillin-resistant S. aureus (MRSA) ATCC 33591; test: MIC assay, CLSI broth microdilution in CAMH broth; assay type: cell-based, Staphylococcus aureus

Compound | MIC [1] [µg/mL] | Intrinsic MIC in CAMH (P. aeruginosa ATCC 27853) | Intrinsic MIC in CAMH (E. coli ATCC 25922) | Intrinsic MIC in CAMH (E. coli N43) | Intrinsic MIC in CAMH (E. coli W4573) | Intrinsic MIC in CAMH (K. pneumoniae ATCC 10031) | Intrinsic MIC in CAMH (K. pneumoniae ATCC 13883) | Intrinsic MIC in CAMH (P. mirabilis ATCC 29906) | Intrinsic MIC in CAMH [2] | Intrinsic MIC in CAMH [3]
Nc1nc(N)c2ccc3c(ccn3Cc3ccc4ccccc4c3)c2n1 [Example 21, 7-(naphthalen-2-ylmethyl)-7H-pyrrolo[2,3-h]quinazoline-2,4-diamine] | 2 (≈ 5.89 µM) | >128¤ | >64¤ | 8¤ | >64¤ | 8¤ | >64¤ | >64¤ | 4¤ | 4¤
Nc1nc(N)c2ccc3c(ccn3C3C=CCCC3)c2n1 (stereo not drawn) [Example 26, 7-(cyclohex-2-en-1-yl)-7H-pyrrolo[2,3-h]quinazoline-2,4-diamine] | 4 (≈ 14.3 µM) | >128¤ | 16¤ | <0.125¤ | 16¤ | 2¤ | 64¤ | >64¤ | 1¤ | 1¤
Cc1cc2c3nc(N)nc(N)c3ccc2n1Cc1ccc(-c2ccccc2C#N)cc1 [Example 31, 4′-((2,4-diamino-8-methyl-7H-pyrrolo[2,3-h]quinazolin-7-yl)methyl)-[1,1′-biphenyl]-2-carbonitrile] | 1 (≈ 2.47 µM) | >128¤ | >64¤ | <0.125¤ | >64¤ | 0.5¤ | >64¤ | >64¤ | 0.25¤ | 0.5¤
